Like-named read-outs stand apart in the source and are kept apart here.
Key:
Assay type in all cases: cell-based
[1] = system: Ang II induced [Ca^2+]i increase in murine mesangial cells (MMCs); assay: Ang II-mediated [Ca2+]i increase in MMCs; details: Mus musculus, Mesangial cell
Experimental: Changes in [Ca^2+]i in MMCs were determined as described previously [Kim et al., Exp. Mol. Med. (2006)38:535-45]. Briefly, MMCs cultured on confocal dishes for 48 h at a concentration of 10^4 cells/dish were washed with Hank's balanced salt solution (HBSS) (2 mM CaCl2, 145 mM NaCl, 5 mM KCl, 1 mM MgCl2, 5 mM D-glucose, and 20 mM HEPES, pH 7.3) and then loaded with […] Fluo 3-AM (Molecular Probe, Eugene, Oreg.). Changes in Ca^2+ fluorescence were determined at 488 nm/530 nm (excitation/emission) by air-cooled argon laser system. [Ca^2+]i was calculated using a Kd of 325 nM for Fluo 3-AM by the method of Tsien et al. (1982).

[2] = system: Ang II induced cADPR production in murine mesangial cells (MMCs); assay: Ang II-induced intracellular cADPR concentration in MMCs; details: for IC50: Mus musculus, Mesangial cell, cADPR production induced by 150 nM Ang II, 90 s, MMCs, read-out: IC50([CADPR]i, uM) (means ± SEM)
Experimental: [cADPR]i was measured using a cyclic enzymatic assay as described previously [Graeff et al., Biochem. J. (2002)361:379-84]. Aplysia californica ADPR-cyclase was purified from […] according to the method described [Lee et al., Cell Regul. (1991)2:203-9]. Briefly, MMCs were treated with 0.3 ml of 0.6 M perchloric acid under sonication after Ang II treatment. Precipitates were removed by centrifugation at 20,000×g for 10 min. Perchloric acid was removed by mixing the aqueous sample with a solution containing 3 volumes of 1,1,2-trichlorotrifluoroethane to 1 volume of tri-n-octlyamine. After centrifugation for 10 min at 1500×g, the aqueous layer was collected and neutralized with 20 mM sodium phosphate (pH 8). To remove all contaminating nucleotides, the samples were incubated with the following hydrolytic enzymes overnight at 37° C.: 0.44 unit/ml nucleotide pyrophosphatase, 12.5 units/ml alkaline phosphatase, 0.0625 unit/ml NADase, and 2.5 mM MgCl2 in 20 mM sodium phosphate buffer (pH 8.0). Enzymes were removed by filtration using Centricon-3 filters. To convert cADPR to NAD^+, the samples (0.1 ml/tube) were incubated with […] of a cycling reagent containing 0.3 mg/ml Aplysia ADPR-cyclase, 30 mM nicotinamide, and 100 mM sodium phosphate (pH 8) at room temperature for 30 min. The samples were further incubated with the cycling reagent (0.1 ml) containing 2% ethanol, […] alcohol dehydrogenase, 20 mM resazurin, 10 mg/ml diaphorase, 10 mM riboflavin 5′-phosphate, 10 mM nicotinamide, 0.1 mg/ml BSA, and 100 mM sodium phosphate (pH 8.0) for 2 h at room temperature. An increase in the resorufin fluorescence was measured at 544 nm excitation and 590 nm emission using a fluorescence plate reader (Molecular Devices Corp., Spectra-Max GEMINI). Various known concentrations of cADPR were also included in the cycling reaction to generate a standard curve. […] Production of cADPR as well as later sustained Ca^2+ signal in response to Ang II was inhibited with different efficacy by these small molecules (Table 1). […] The order of IC50 was 4,4′-DAHB>resveratrol>azobenzene=piceatannol>2,2′-DAHB.

[3] = system: OKT3 induced [Ca^2+]i increase in Jurkat T cells; assay: OKT3-mediated [Ca2+]i increase in Jurkat T cells; details: pretreatment, even at 10 mM; OKT3 5 mg/ml
Experimental: Changes in [Ca^2+]i in Jurkat T cells were determined as described above examples 1.

[4] = system: OKT3 induced cADPR production in Jurkat T cells; assay: OKT3-induced [cADPR]i in Jurkat T cells; details: pretreatment
Experimental: [cADPR]i was measured using a cyclic enzymatic assay as described previously [Graeff et al., Biochem. J. (2002)361:379-84]. Aplysia californica ADPR-cyclase was purified from […] according to the method described [Lee et al., Cell Regul. (1991)2:203-9]. Briefly, MMCs were treated with 0.3 ml of 0.6 M perchloric acid under sonication after Ang II treatment. Precipitates were removed by centrifugation at 20,000×g for 10 min. […] After centrifugation for 10 min at 1500×g, the aqueous layer was collected and neutralized with 20 mM sodium phosphate (pH 8). To remove all contaminating nucleotides, the samples were incubated with the following hydrolytic enzymes overnight at 37° C.: 0.44 unit/ml nucleotide pyrophosphatase, 12.5 units/ml alkaline phosphatase, 0.0625 unit/ml NADase, and 2.5 mM MgCl2 in 20 mM sodium phosphate buffer (pH 8.0). Enzymes were removed by filtration using Centricon-3 filters. […] An increase in the resorufin fluorescence was measured at 544 nm excitation and 590 nm emission using a fluorescence plate reader (Molecular Devices Corp., Spectra-Max GEMINI). […] Measurement of [cADPR]i in Jurkat T cells were determined as described above examples 5.

[5] = later sustained Ca2+ signal induced by 150 nM Ang II, 300 s, read-out: IC50([Ca^2+]i, uM) (means ± SEM)

Oc1ccccc1/N=N/c1ccccc1O [2,2′-DHAB, 2,2′-Dihydroxyazobenzene]
IC50 [1, 5]: 15 ± 1.5 µM
IC50 [2]: 16.5 ± 2.5 µM
effect on OKT3-mediated Ca2+ rise [3]: did not show any effects
effect on OKT3-mediated [cADPR]i [4]: didn't inhibited

Oc1ccc(N=Nc2ccc(O)cc2)cc1 [4,4′-DHAB, 4,4′-Dihydroxyazobenzene]
IC50 ([1]; Ang II, pretreatment, read-out: IC50 for block of the sustained Ca2+ signal): ~0.0025 µM
IC50 [1, 5]: 0.0025 ± 0.0002 µM
concentration at which cADPR production stimulated by Ang II is inhibited ([2]; MMC): 5 nM
IC50 [2]: 0.0025 ± 0.0003 µM
effect on OKT3-mediated Ca2+ rise [3]: did not show any effects
effect on OKT3-mediated [cADPR]i [4]: didn't inhibited

— patent US8314082B2, “Stilbene derivatives for ADP-ribosyl cyclase inhibitors” (Industrial Cooperation Foundation Chonbuk National …, priority 2006, dated 2012)
